Laboratory results: patent US20120295920A1, “5-AMINO-4-HYDROXYPENTOYL AMIDES” (priority 2009, published 2012)
Where two headings read alike, the source gives them in different places.

Key:
HIV-1 wild-type strain = experiment: General antiviral assay, cell-based virus replication in MT4-LTR-EGFP cells, wild-type strain
Experimental: (§1) MT4-LTR-EGFP cells were obtained by transfecting MT4 cells with a selectable construct encompassing the sequences coding for the HIV long terminal repeat (LTR) as a promoter for the expression of enhanced green fluorescent protein (EGFP) and subsequent selection of permanently transfected cells.
(§2) The antiviral activity on different HIV-1 strains, was determined in a cell-based virus replication assay. Here MT4-LTR-EGFP cells (150,000 cells/ml) are infected (multiplicity of infection [MOI] of 0.0025) in the presence or absence of different inhibitor concentrations. Two methodologies for read-out were used, either quantification of GFP-fluoresence on day 3 post-infection, or quantification of cell-viability using rezazurin (as described by Fields, R. D., and M. V. Lancaster (1993) Am. Biotechnol. Lab. 11:48-50) on day 4 post infection.

mock-infected MT4 cells = experiment: General toxicity assay on mock-infected MT4 cells with CMV-EGFP reporter (CC50); format: cell-based
[1] = tested on: HIV-1 Strain B (M046I, I050V); experiment: microbe, parasite or virus in culture; format: cell-based; conditions: clinical isolate Strain B; read-out: B EC50
Experimental: as §1, §2
(§3) In the following Table, Strains A, B, and C are clinical isolates that include the following protease inhibitor resistance mutations in the protease domain (background mutations are not mentioned).

[2] = tested on: HIV-1 Strain A (M046I, I084V); experiment: microbe, parasite or virus in culture; format: cell-based; conditions: clinical isolate Strain A; read-out: A EC50
Experimental: as §1, §2, §3

[3] = tested on: HIV-1 Strain C (G048G/V, V082A); experiment: microbe, parasite or virus in culture; format: cell-based; conditions: clinical isolate Strain C; read-out: C EC50
Experimental: as §1, §2, §3

HIV-1 IIIB = experiment: 50% HS-Rezazurin: antiviral assay in the presence of 50% human serum, MT-4 cells, resazurin cell viability; format: cell-based
Experimental: For the Antiviral assay in the presence of 50% human serum MT-4 cells were infected with HIV-1 IIIB at a MOI of 0.001 to 0.01 CCID50/cell in RPMI1640 medium. Following 1 h of incubation, cells were washed and plated into a 96-well plate containing serial dilutions of compound in the presence of 10% fetal calf serum (FCS), or 50% human serum. After 4 days incubation, the EC50 in the presence of 50% human serum was determined by a cell viability assay using resazurin.
The last column lists the results for the wild-type strain IIB in the presence of 50% human serum MT-4 cells.

[4] = wild-type strain IIIB, MT4-LTR-EGFP cells
[5] = MT4LTR cells, read-out: TOX-MT4LTR (CC50)
[6] = mock-infected MT4 cells with CMV-EGFP reporter, read-out: TOX-MT4CMV (CC50)

SMILES | EC50 (HIV-1 wild-type strain; [4]) | CC50 (mock-infected MT4 cells; [5]) | EC50 [1] | EC50 [2] | EC50 [3] | EC50 (HIV-1 IIIB) | CC50 (mock-infected MT4 cells; [6]) | EC50 (HIV-1 wild-type strain; read-out: HIV-IIIB EC50)
COc1ccc(-c2ccc(C[C@H](NC(=O)O[C@H]3CO[C@H]4OCC[C@H]43)[C@@H](O)C[C@@H](Cc3ccccc3F)C(=O)N[C@H]3c4cc(Cl)cc(F)c4OC[C@H]3O)cc2)cn1 [Compound 81] | 4.1 nM | > 32000 nM | 2.4 nM | 2.8 nM | 1.3 nM | 13.4 nM | – | –
COc1ccc(-c2ccc(C[C@H](NC(=O)O[C@H]3CO[C@H]4OCC[C@H]43)[C@@H](O)C[C@@H](Cc3ccccc3F)C(=O)N[C@H]3c4ccsc4CC[C@H]3O)cc2)cn1 [Compound 74] | 0.9 nM | > 32000 nM | 0.6 nM | 0.8 nM | 0.4 nM | 3.5 nM | – | –
COc1ccc(-c2ccc(C[C@H](NC(=O)[C@@H](NC(=O)C3(C#N)CC3)C(C)(C)C)[C@@H](O)C[C@@H](Cc3ccccc3F)C(=O)N[C@H]3c4cc(Cl)ccc4OC[C@H]3O)cc2)cn1 [Compound 47] | 3.2 nM | > 32000 nM | 6.8 nM | 11.1 nM | 5.5 nM | 10.4 nM | – | –
COCCOC(=O)N[C@H](C(=O)N[C@@H](Cc1ccc(-c2ccc(OC)nc2)cc1)[C@@H](O)C[C@@H](Cc1ccccc1F)C(=O)N[C@H]1c2cc(Cl)ccc2OC[C@H]1O)C(C)(C)C [Compound 55] | 2.7 nM | > 32000 nM | 1.5 nM | 2.1 nM | 1.2 nM | 12.5 nM | – | –
COC(=O)N[C@H](C(=O)N[C@@H](Cc1ccc(-c2ccc(OC)nc2)cc1)[C@@H](O)C[C@@H](Cc1ccccc1Cl)C(=O)N[C@H]1c2ccsc2CC[C@H]1O)C(C)(C)C [Compound 95] | 1.5 nM | 23000 nM | 1.3 nM | 2.2 nM | 1 nM | 5.9 nM | – | –
COc1ccc(-c2ccc(C[C@H](NC(=O)O[C@H]3CO[C@H]4OCC[C@H]43)[C@@H](O)C[C@@H](Cc3ccccc3F)C(=O)N[C@H]3c4cc(F)ccc4OC[C@H]3O)cc2)cn1 [Compound 80] | 2.4 nM | > 32000 nM | 1.1 nM | 1.5 nM | 0.8 nM | 10.9 nM | – | –
COC(=O)NC(C(=O)NC(Cc1ccc(-c2cnc(N(C)C)cn2)cc1)C(O)CC(Cc1ccccc1F)C(=O)NC1c2cc(Cl)ccc2OCC1O)C(C)(C)C (stereo not shown) [Compound 22] | 3.8 nM | – | 2.6 nM | 3.5 nM | 2.1 nM | 26.4 nM | > 32000 nM | –
COC(=O)N[C@H](C(=O)N[C@@H](Cc1ccc(-c2cnc(N(C)C)nc2)cc1)[C@@H](O)C[C@@H](Cc1ccccc1Cl)C(=O)N[C@H]1c2cc(F)ccc2OC[C@H]1O)C(C)(C)C [Compound 63] | 1.5 nM | > 32000 nM | 0.7 nM | 1.2 nM | 0.6 nM | 9.4 nM | – | –
COC(=O)N[C@H](C(=O)N[C@@H](Cc1ccc(-c2cnc(C)s2)cc1)[C@@H](O)C[C@@H](Cc1ccccc1F)C(=O)N[C@H]1[C@H](C)CC[C@H]1O)C(C)(C)C [Compound 83] | 4 nM | – | 2.5 nM | 8.3 nM | 2.7 nM | 14.3 nM | > 32000 nM | –
COC(=O)NC(C(=O)NC(Cc1ccc(-c2cnc(C)s2)cc1)C(O)CC(Cc1cccc(Cl)c1)C(=O)NC1c2cc(Cl)ccc2OCC1O)C(C)(C)C (stereo not shown) [Compound 6] | 3.2 nM | – | 2.7 nM | 3.9 nM | 1.5 nM | 15.2 nM | > 32000 nM | –
COC(=O)N[C@H](C(=O)N[C@@H](Cc1ccc(-c2cnc(C3CC3)s2)cc1)[C@@H](O)C[C@@H](Cc1ccccc1F)C(=O)N[C@H]1c2cc(Cl)ccc2OC[C@H]1O)C(C)(C)C [Compound 28] | 3.2 nM | – | 2.1 nM | 3.1 nM | 1.4 nM | 22.5 nM | > 32000 nM | –
CN(C)c1ccc(-c2ccc(CC(NC(=O)C(NC(=O)CN3CCCC3)C(C)(C)C)C(O)CC(Cc3ccccc3F)C(=O)NC3c4cc(Cl)ccc4OCC3O)cc2)cn1 (stereo not shown) [Compound 19] | 5.3 nM | – | 2.4 nM | 3.7 nM | 1.8 nM | 22.1 nM | > 27000 nM | –
COC(=O)N[C@H](C(=O)N[C@@H](Cc1ccc(-c2cnc(OC(C)C)cn2)cc1)[C@@H](O)C[C@@H](Cc1cccc(F)c1)C(=O)N[C@H]1c2cc(Cl)ccc2OC[C@H]1O)C(C)(C)C [Compound 46] | 5.3 nM | 10000 nM | 5.6 nM | 9.4 nM | 3.7 nM | 34.6 nM | – | –
COC(=O)N[C@H](C(=O)N[C@@H](Cc1ccc(-c2cnc(N(C)C)nc2)cc1)[C@@H](O)C[C@@H](Cc1ccccc1F)C(=O)N[C@H]1c2cc(Cl)ccc2OC[C@H]1O)C(C)(C)C [Compound 43] | 2 nM | > 32000 nM | 1 nM | 1.7 nM | 1.1 nM | 10.6 nM | – | –
COC(=O)N[C@H](C(=O)N[C@@H](Cc1ccc(-c2cncc(OC)n2)cc1)[C@@H](O)C[C@@H](Cc1ccccc1F)C(=O)N[C@H]1c2cc(Cl)ccc2OC[C@H]1O)C(C)(C)C [Compound 24] | 3.3 nM | – | 1.9 nM | – | 1.7 nM | 16.1 nM | > 32000 nM | –
CCOc1ccc(-c2ccc(C[C@H](NC(=O)[C@@H](NC(=O)OC)C(C)(C)C)[C@@H](O)C[C@@H](Cc3ccccc3F)C(=O)N[C@H]3c4cc(Cl)ccc4OC[C@H]3O)cc2)cn1 [Compound 44] | 3.2 nM | > 32000 nM | 2.2 nM | – | 2 nM | 13.7 nM | – | –
COCCOC(=O)N[C@H](C(=O)N[C@@H](Cc1ccc(-c2ccc(OC)nc2)cc1)[C@@H](O)C[C@@H](Cc1ccccc1Cl)C(=O)N[C@H]1c2cc(F)ccc2OC[C@H]1O)C(C)(C)C [Compound 57] | 1.9 nM | > 32000 nM | 0.9 nM | – | 0.8 nM | 8.7 nM | – | –
COC(=O)N[C@H](C(=O)N[C@@H](Cc1ccc(-c2ccc(N(C)C)nc2)cc1)[C@@H](O)C[C@@H](Cc1ccccc1F)C(=O)N[C@H]1[C@H](C)CCC[C@H]1O)C(C)(C)C [Compound 89] | 1.1 nM | > 32000 nM | – | – | 0.8 nM | 4.9 nM | > 32000 nM | –
CNC(=O)[C@@H](NC(=O)[C@H](Cc1ccccc1F)C[C@H](O)[C@H](Cc1ccc(-c2ccc(N(C)C)nc2)cc1)NC(=O)O[C@H]1CO[C@H]2OCC[C@H]21)C(C)(C)C [Compound 69] | – | – | 7 nM | – | 5.7 nM | 26.6 nM | > 32000 nM | 11.6 nM
COC(=O)N[C@H](C(=O)N[C@@H](Cc1ccc(-c2ccc(OC)nc2)cc1)[C@@H](O)C[C@@H](Cc1ccccc1F)C(=O)N[C@H]1c2cc(F)ccc2OC[C@H]1O)C(C)(C)C [Compound 59] | 1.2 nM | > 32000 nM | 0.6 nM | 0.9 nM | – | 5.8 nM | – | –
CN(C)c1ccc(-c2ccc(CC(NC(=O)C(NC(=O)CN3CCCC3)C(C)(C)C)C(O)CC(Cc3cccc(Cl)c3)C(=O)NC3c4cc(F)ccc4OCC3O)cc2)cn1 (stereo not shown) [Compound 9] | 8.8 nM | – | 6.6 nM | – | 3.7 nM | 31.7 nM | > 27000 nM | –
COC(=O)NC(C(=O)NC(Cc1ccc(-c2csc(N(C)C)n2)cc1)C(O)CC(Cc1ccccc1F)C(=O)NC1c2cc(Cl)ccc2OCC1O)C(C)(C)C (stereo not shown) [Compound 20] | 3.1 nM | – | – | 7.4 nM | 2.7 nM | 11.2 nM | 6000 nM | –
